Laboratory results from ChEMBL document CHEMBL5230122, “Natural products and other inhibitors of F1FO ATP synthase” (Eur J Med Chem, 2020).
pIC50: −log10 of the molar value. Each block holds one molecule with its values, some of them ahead of it.

What was measured:
Type in all cases: functional, cell-based
P388 [1] = assay: Anticancer activity against mouse P388 cells assessed as reduction in cell viability incubated for 96 hrs by MTT assay; settings: P388, 96 h
P388 [2] = assay: Anticancer activity against mouse P388 cells assessed as reduction in cell viability incubated for 48 hrs by sulforhodamine B (SRB) assay; settings: P388, 48 h
MCF7 [3] = assay: Anticancer activity against human MCF7 cells assessed as reduction in cell viability incubated for 48 hrs by sulforhodamine B (SRB) assay; settings: MCF7, 48 h
HCT-116 = assay: Antitumor activity against human HCT-116 cells assessed as reduction in cell viability incubated for 48 hrs by MTT assay; settings: HCT-116, 48 h
Huh-7 = assay: Antitumor activity against human Huh-7 cells assessed as reduction in cell viability incubated for 48 hrs by MTT assay; settings: Huh-7, 48 h
MCF7 [4] = assay: Antitumor activity against human MCF7 cells assessed as reduction in cell viability incubated for 48 hrs by MTT assay; settings: MCF7, 48 h
A549 = assay: Antitumor activity against human A549 cells assessed as reduction in cell viability incubated for 48 hrs by MTT assay; settings: A549, 48 h
[5] = Antitumor activity against mouse RIL-175 cells assessed as reduction in cell viability incubated for 48 hrs by MTT assay; settings: RIL-175, 48 h
SK-OV-3 = assay: Cytotoxicity against human SK-OV-3 cells assessed as reduction in cell viability incubated for 72 hrs by WST-8 assay; settings: SK-OV-3, 72 h
[6] = Cytotoxicity against human ACC-MESO-1 cells assessed as reduction in cell viability incubated for 72 hrs by WST-8 assay; settings: ACC-MESO-1, 72 h
Jurkat = assay: Cytotoxicity against human Jurkat cells assessed as reduction in cell viability incubated for 72 hrs by WST-8 assay
HeLa S3 = assay: Anticancer activity against human HeLa S3 cells assessed as reduction in cell viability incubated for 48 hrs by WST-8 assay; settings: HeLa S3, 48 h
[7] = Anticancer activity against rat Ad12-3Y1-W5 cells assessed as reduction in cell viability incubated for 72 hrs by MTT assay; settings: Ad12-3Y1-W5, 72 h
[8] = Anticancer activity against rat Ad12-3Y1-Z11 cells assessed as reduction in cell viability incubated for 72 hrs by MTT assay; settings: Ad12-3Y1-Z11, 72 h
[9] = Anticancer activity against rat Ad12-3Y1-Z13 cells assessed as reduction in cell viability incubated for 72 hrs by MTT assay; settings: Ad12-3Y1-Z13, 72 h
[10] = Anticancer activity against rat Ad12-3Y1-Z19 cells assessed as reduction in cell viability incubated for 72 hrs by MTT assay; settings: Ad12-3Y1-Z19, 72 h
[11] = Anticancer activity against rat E1A-3Y1-1 cells assessed as reduction in cell viability incubated for 72 hrs by MTT assay; settings: E1A-3Y1-1, 72 h
[12] = Anticancer activity against rat E1A-3Y1-2 cells assessed as reduction in cell viability incubated for 72 hrs by MTT assay; settings: E1A-3Y1-2, 72 h
[13] = Anticancer activity against rat E1A-3Y1-3 cells assessed as reduction in cell viability incubated for 72 hrs by MTT assay; settings: E1A-3Y1-3, 72 h

pIC50 (P388 [1]): 9.29 | pIC50 (P388 [2]): 8.00 | pIC50 (MCF7 [3]): 8.00
SMILES: CC/C(C)=C(\NC(=O)[C@@H](NC(=O)CC(=O)[C@@H](C)CC(C)C)[C@](C)(O)CC)C(=O)N[C@@H](C)C(=O)N/C(C(=O)N[C@@H](C(=O)N[C@@H](C(=O)N[C@@H](C(=O)N[C@H](C(=O)N/C(C(=O)N[C@H](C)C(=O)N[C@@H](C(=O)N[C@H](C(=O)NC(C(=O)N[C@H](CN(C)C)C(C)C)=C(C)C)C(C)C)C(C)C)=C(\C)CC)C(C)(C)O)C(C)(C)O)[C@@H](C)CC)C(C)C)=C(\C)CC

pIC50 (HCT-116): 6.75 | pIC50 (Huh-7): 6.85 | pIC50 (MCF7 [4]): 6.32 | pIC50 (A549): 5.94
SMILES: CSCC[C@H](NC(=S)[C@@H](NC(=O)C(C)=O)C(C)C)C(=S)N[C@@H](C)C(=O)N[C@@H](C)C(=S)N[C@@H](C)C(=S)N[C@@H](C)C(=O)N[C@H]1C(=O)N[C@@H](C(C)C)C(=O)N[C@@H](C)C(=O)N[C@@H](Cc2ccccc2)C(=O)N[C@@H](C(O)c2cn(C)c[n+]2C)C(=O)N/C=C\SC1C (some centres undefined)
pIC50 [5]: 6.80

SMILES: CC[C@H](C)[C@@H]1NC(=O)[C@H](NC(=O)[C@H](C)NC(=S)[C@H](C)NC(=S)[C@H](C)NC(=S)[C@H](C)NC(=S)[C@H](CCSC)NC(=S)[C@@H](NC(=O)C(C)O)C(C)C)CS/C=C\NC(=O)[C@H]([C@@H](O)c2cn(C)c[n+]2C)NC(=O)[C@H](CC(C)C)NC(=O)[C@H](C)NC1=O (some centres undefined)
pIC50 (SK-OV-3): 4.97 | pIC50 [6]: 4.84 | pIC50 (Jurkat): 5.27

pIC50 (HeLa S3): 6.44
SMILES: CC[C@H](C)[C@@H]1NC(=O)[C@H](NC(=O)[C@H](C)NC(=S)[C@H](C)NC(=S)[C@H](C)NC(=S)[C@H](C)NC(=S)[C@H](CCSC)NC(=S)[C@@H](NC(=O)C(C)=O)C(C)C)CS/C=C\NC(=O)[C@H](C(O)c2cn(C)c[n+]2C)NC(=O)[C@H](CC(C)C)NC(=O)[C@H](C)NC1=O (some centres undefined)
pIC50 [7]: 7.80 | pIC50 [8]: 7.80 | pIC50 [9]: 7.80 | pIC50 [10]: 7.80 | pIC50 [11]: 7.68 | pIC50 [12]: 7.68 | pIC50 [13]: 7.68
